Where a SMILES comes first, the peptide text is derived from it. The star is where a group is joined. Myristoyl = CCCCCCCCCCCCCC(=O)*
Columns and labels:
[1] = system: CD44^hiCD24^lo CSCs in MDA-MB-231 cells; assay: FACS analysis of CD44^hiCD24^lo cancer stem cells in MDA-MB-231 cells treated with P1 analogues; format: cell-based, human; settings: 50 μM peptide, 48 hours; for CD44^hiCD24^lo CSCs (%) / COI, Live Single CD44^hiCD24^lo CSCs (Cell Count): n = 1; for Average Inhibition of CSCs (%) / CD44^hiCD24^lo CSCs (%) Repeat 1 / CD44^hiCD24^lo CSCs (%) Repeat 2 / CD44^hiCD24^lo CSCs (%) Repeat 3: n = 3
Experimental: Analogues of P1 (Table 6) were designed and synthesized in accordance with the procedure of Example 5. The ability of these analogues to inhibit cancer stem cells was determined using FACS analysis on MDA-MB-231 cells, which constitutively contain approximately 90% CD44^hiCD24^lo cancer stem cells, treated with the peptides.
(§1) Non-adherent cells were removed during the washing steps.

MDA-MB-231 cells = format: cell-based, human; settings: for killing of total MDA-MB-231 cells: not only the CSCs
Description: as §1

[2] = system: CD44^hiCD24^lo CSCs in MCF7 cells; assay: FACS analysis of CD44^hiCD24^lo CSCs in MCF7 cells; format: cell-based, human; settings: 50 μM peptide, 48 hours
Experimental: (§2) P1 Analogues were synthesized in accordance with the procedure of Example 5. 4×10^4 MDA-MB-231 cells or 1×10^4 induced or non-induced MCF7 cells were seeded in a 12 well plate with 1 mL complete media overnight. Induced MCF7 cells were prepared by stimulating cells with PMA/TGF-β and incubating for 12 hours. Cells were treated with 50 μM test peptide (dissolved in water) for 48 hours. Cells were then washed twice with 1 mL PBS and harvested by trypsinisation. Non-adherent cells were removed during the washing steps. Adherent cells were collected, and were subsequently stained with anti-human CD44, CD24 and Hoechst 33342 antibodies on ice for 30 mins. FACS was performed on BD FACS LSRII to measure the percentage of CD44^hiCD24^lo CSCs by dividing CD44^hiCD24^lo events by total live cell counts (Hoechst negative population) (as described in Fillmore and Kuperwasser (2007) Breast Cancer Res, 9: 303). The percentage of viable cells was calculated by dividing total live cell events by total single cells as described previously (Siemann and Keng (1986), Cancer Res, 46: 3556-3559).

MCF7 cells = system: MCF7 cells
Experimental: as §2

induced MCF7 cells = assay: FACS CSC inhibition in induced MCF7 cells; format: cell-based, human; settings: induced MCF7 cells (PMA/TGF-β), 50 μM peptide, 48 hours
Experimental: as §2

[3] = MCF7 cells, 50 μM peptide, 48 hours
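Wherever COI, Live Single Cells (Cell Count) is given: live means Hoechst-negative events among single cells.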

SMILES	Inhibition of CSCs (%) Repeat 1 [1]	Inhibition of CSCs (%) Repeat 2 [1]	Inhibition of CSCs (%) Repeat 3 [1]	CD44^hiCD24^lo CSCs (%) [1]	COI, Live Single CD44^hiCD24^lo CSCs (Cell Count) [1]	Average Inhibition of CSCs (%) [1]	CD44^hiCD24^lo CSCs (%) Repeat 1 [1]	CD44^hiCD24^lo CSCs (%) Repeat 2 [1]	CD44^hiCD24^lo CSCs (%) Repeat 3 [1]	COI (Cell Count) (MDA-MB-231 cells; 50 μM peptide, 48 hours, n = 1)	COI, Live Single Cells (Cell Count) (MDA-MB-231 cells; 50 μM peptide, 48 hours, n = 1)	COI, Single (Cell Count) (MDA-MB-231 cells; 50 μM peptide, 48 hours, n = 1)	Total Cell Count (MDA-MB-231 cells; 50 μM peptide, 48 hours, n = 1)	killing of total MDA-MB-231 cells (MDA-MB-231 cells)	CD44^hiCD24^lo CSC % [2]	COI/Single Cells/Live/CD44^hiCD24^lo CSCs Count [2]	COI Count (MCF7 cells; [3])	COI/Single Cell Count (MCF7 cells; [3])	COI/Single Cells/Live Count (MCF7 cells; [3])	Total Count (MCF7 cells; [3])	further results
CCCCCCCCCCCCCC(=O)N[C@H](C(=O)N[C@@H](Cc1ccccc1)C(=O)N[C@H](C(=O)N[C@@H](Cc1ccccc1)C(=O)N[C@@H](CCCNC(=N)N)C(=O)N[C@@H](CC(C)C)C(=O)N[C@@H](CCCNC(=N)N)C(=O)N[C@@H](CCCCN)C(=O)NCC(=O)N[C@@H](CCCNC(=N)N)C(=O)N[C@@H](CCSC)C(=O)N[C@@H](CCSC)C(=O)N[C@@H](C)C(=O)N[C@H](C(=O)N[C@@H](CCCCN)C(=O)N[C@@H](CCCCN)C(N)=O)C(C)C)[C@@H](C)CC)[C@@H](C)O [Peptide 2815314, Myristoyl-TFIFRLRKGRMMAVKK-NH2] (Myristoyl-TFIFRLRKGRMMAVKK-NH2)	100.00%	100.00%	100.00%	0.00%	0	100.00%	0.00%	0.00%	0.00%	10	2	9	5611	killed the majority of the total MDA-MB-231 cells	2.75%	145	6564	5443	5276	10000	CSC inhibition (%) (induced MCF7 cells): 61.00%
CCCCCCCCCCCCCC(=O)N[C@@H](CC(C)C)C(=O)N[C@@H](CCCCN)C(=O)N[C@@H](Cc1ccccc1)C(=O)N[C@H](C(=O)N[C@@H](Cc1ccccc1)C(=O)N[C@@H](CCCNC(=N)N)C(=O)N[C@@H](CC(C)C)C(=O)N[C@@H](CCCNC(=N)N)C(=O)N[C@@H](CCCCN)C(=O)NCC(=O)N[C@@H](CCCNC(=N)N)C(=O)N[C@@H](CCSC)C(=O)N[C@@H](CCSC)C(=O)N[C@@H](CC(=O)O)C(=O)N[C@H](C(=O)N[C@@H](CCCCN)C(=O)N[C@@H](CCCCN)C(N)=O)C(C)C)[C@@H](C)CC [Peptide 2853805, Myristoyl-LKFIFRLRKGRMMDVKK-NH2] (Myristoyl-LKFIFRLRKGRMMDVKK-NH2)	100.00%	100.00%	100.00%	0.00%	0	100.00%	0.00%	0.00%	0.00%	52	1	32	3221	killed the majority of the total MDA-MB-231 cells	2.50%	108	5356	4637	4320	10000	CSC inhibition (%) (induced MCF7 cells): 64.52%
CCCCCCCCCCCCCC(=O)N[C@@H](CC(C)C)C(=O)N[C@H](C(=O)N[C@@H](Cc1ccccc1)C(=O)N[C@H](C(=O)N[C@@H](Cc1ccccc1)C(=O)N[C@@H](CCCNC(=N)N)C(=O)N[C@@H](CC(C)C)C(=O)N[C@@H](CC(C)C)C(=O)N[C@@H](CCCCN)C(=O)NCC(=O)N[C@@H](CCCNC(=N)N)C(=O)N[C@@H](CCSC)C(=O)N[C@@H](CCSC)C(=O)N[C@@H](CC(=O)O)C(=O)N[C@H](C(=O)N[C@@H](CCCCN)C(=O)N[C@@H](CCCCN)C(N)=O)C(C)C)[C@@H](C)CC)[C@@H](C)O [Peptide 2853825, Myristoyl-LTFIFRLLKGRMMDVKK-NH2] (Myristoyl-LTFIFRLLKGRMMDVKK-NH2)	100.00%	100.00%	100.00%	0.00%	0	100.00%	0.00%	0.00%	0.00%	18	0	15	1583	killed the majority of the total MDA-MB-231 cells	0.00%	0	72	35	0	10000	Viable Cells (%) (MDA-MB-231 cells; 50 μM peptide, 48 hours, n = 1): 0.00%; cytotoxicity to MCF7 cells (MCF7 cells): cytotoxic; % Viable Cells (MCF7 cells; [3]): 0.00%; CSC inhibition (%) (induced MCF7 cells): Cytotoxic
CCCCCCCCCCCCCC(=O)N[C@@H](CC(C)C)C(=O)N[C@H](C(=O)N[C@@H](Cc1ccccc1)C(=O)N[C@H](C(=O)N[C@@H](Cc1ccccc1)C(=O)N[C@@H](CCCNC(=N)N)C(=O)N[C@@H](CC(C)C)C(=O)N[C@@H](CCCNC(=N)N)C(=O)N[C@@H](CCCCN)C(=O)NCC(=O)N[C@@H](CCCNC(=N)N)C(=O)N[C@@H](CCSC)C(=O)N[C@@H](CCSC)C(=O)N[C@@H](CC(=O)O)C(=O)N[C@@H](CCCCN)C(=O)N[C@@H](CCCCN)C(=O)N[C@@H](CCCCN)C(N)=O)[C@@H](C)CC)[C@@H](C)O [Peptide 2853839, Myristoyl-LTFIFRLRKGRMMDKKK-NH2] (Myristoyl-LTFIFRLRKGRMMDKKK-NH2)	100.00%	100.00%	100.00%	0.00%	0	100.00%	0.00%	0.00%	0.00%	12	2	10	619	killed the majority of the total MDA-MB-231 cells	1.14%	25	3128	2294	2200	10000	CSC inhibition (%) (induced MCF7 cells): 83.87%

Source: US20200339691A1, “PROTEINACEOUS MOLECULES AND USES THEREFOR” (priority 2018, published 2020)
